Assays:
[1] = target: S6K1 (Homo sapiens, UniProt P23443, T412E); design: method as in PMID 27481935; conditions: cited from earlier work
[2] = target: T1, SGK1 (Homo sapiens, UniProt O00141, S422D); design: method as in PMID 27481935; conditions: cited from earlier work
T1 sequence (O00141 60-431 S422D limits assumed): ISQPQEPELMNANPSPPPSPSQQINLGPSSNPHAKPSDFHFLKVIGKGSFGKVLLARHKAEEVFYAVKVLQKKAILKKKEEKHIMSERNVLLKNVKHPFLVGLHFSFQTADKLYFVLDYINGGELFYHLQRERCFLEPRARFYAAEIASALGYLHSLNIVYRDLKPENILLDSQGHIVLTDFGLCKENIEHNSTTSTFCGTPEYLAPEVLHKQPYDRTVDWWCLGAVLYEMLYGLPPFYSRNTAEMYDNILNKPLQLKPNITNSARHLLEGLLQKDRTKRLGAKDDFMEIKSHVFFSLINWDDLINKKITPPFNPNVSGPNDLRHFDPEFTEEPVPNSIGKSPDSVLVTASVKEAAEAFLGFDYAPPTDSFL

[3] = system: CAMA-1 cells; assay: Cell growth (confluency, Incucyte S3); assay type: cell-based; conditions: CAMA-1; 1 μM GDC0941 or AZD5363; SGK3-PROTAC1/cisSGK3-PROTAC1 0.3 μM, 14H 3 μM
Procedure: (§1) Figure 6 SGK3-PROTAC1-mediated degradation of SGK3 further inhibiting the growth of cancer cell lines treated with PI3K-Akt pathway inhibitors. CAMA-1 (A, C) and ZR-75-1 (B, D) were treated with compounds as indicated either as monotherapy or in combination, and confluency was measured on the Incucyte S3 every 4 h for up to 4 weeks.
(§2) For growth assays, ZR-75-1 cells were seeded in 96-well plates at a density of 6000 cells/well and left to adhere overnight. Cells were then treated with compounds as described in the figure legends and imaged every 4 h on the Incucyte S3 (Essen Bioscience) for up to 4 weeks to give a measure of cell confluency. Media were refreshed every 4–5 days.
(§3) Supplementary Figure S3. SGK3-PROTAC compounds have no effect on cell growth. CAMA-1 and ZR-75-1
(§4) confluency was m easured every 4 h on Incucyte S3.
(§5) (1 picture or pasted object on this page, not shown here)

[4] = system: ZR-75-1 cells; assay: Cell growth (confluency, Incucyte S3); assay type: cell-based; conditions: ZR-75-1; 1 μM GDC0941 or AZD5363; SGK3-PROTAC1/cisSGK3-PROTAC1 0.3 μM, 14H 3 μM
Procedure: as §1, §2, §3, §4, §5

[5] = system: phosphorylation of NDRG1 at Thr346; assay: NDRG1 phosphorylation in HEK293 cells, immunoblot; assay type: cell-based; conditions: HEK293, 8 h, 0.3 μM SGK3-PROTAC1, 1 μM 14H, 1 μM 308-R
Procedure: Figure 3 Characterization of cellular activities of SGK3-PROTAC1 and cisSGK3-PROTAC1. (A) HEK293 cells were first treated for 8 h with 0.03–3 μM SGK3-PROTAC1 and cisSGK3-PROTAC1. One hour before lysis, cells were treated with 3 μM AZD5363. Lysates were subjected to immunoblot analysis with the indicated antibodies. […] Lysates were subjected to immunoblot analysis with the indicated antibodies. (C) HEK293 cells were treated for up to 48 h with SGK3-PROTAC1 (0.3 μM), and lysates were analyzed by immunoblot analysis using the indicated antibodies. (D) HEK293 cells were treated for 24 h with SGK3-PROTAC1. Cells were washed three times with DMEM to wash out the compound, and recovery of SGK3 expression protein was analyzed by immunoblot analysis. (E–G) As in A except that CAMA-1 (E), ZR-75-1 (F), and JIMT-1 (G) cells were employed rather than HEK293 cells.
To study the impact of SGK3-PROTAC1 on phosphorylation of a physiological substrate, we monitored phosphorylation of NDRG1 at Thr346.[37] This site is also phosphorylated by Akt; therefore we treated cells with increasing doses of SGK3-PROTAC1 and cisSGK3-PROTAC1 for 8 h, with the addition of an Akt inhibitor (3 μM AZD5363) 1 h before lysis, to remove the impact of Akt phosphorylation of NDRG1. […] Concentrations of cisSGK3-PROTAC1 of above 1 μM were required to lower NDRG1 phosphorylation. […] This is consistent with previous work in HEK293 cells showing that inhibition of both Akt and SGK3 is required to block NDRG1 phosphorylation.[8],[37]
All cell treatments were carried out as described in figure legends, to a final DMSO concentration of 0.1% (v/v). Lysates were quantified. Immunoblotting was performed using standard procedures, described in brief below. Lysate concentration was quantified by Bradford Assay, and 10 μg of lysate was loaded in the LDS sample buffer for SDS-PAGE electrophoresis on Novex 4–12% Bis–Tris gels. Proteins were electrophoretically transferred onto nitrocellulose membranes (Amersham Protran 0.45 μm NC; GE Healthcare) at 80 V for 80 min on ice in transfer buffer. Transferred membranes were blocked with 5% (w/v) nonfat dry milk dissolved in TBS-T [20 mM Tris/HCl, pH 7.5, 150 mM NaCl, and 0.1% (v/v) Tween 20] at RT for 30 min, before incubation with the primary antibody overnight at 4 °C. The signal was produced with near-infrared secondary antibodies and detected using a Licor Biosciences Odyssey System, and the signal was quantified in Image Studio Lite.

[6] = target: T2, SGK3 (Homo sapiens, UniProt Q96BR1); design: method as in PMID 27481935; conditions: cited from earlier work
T2 sequence (Q96BR1 1-496): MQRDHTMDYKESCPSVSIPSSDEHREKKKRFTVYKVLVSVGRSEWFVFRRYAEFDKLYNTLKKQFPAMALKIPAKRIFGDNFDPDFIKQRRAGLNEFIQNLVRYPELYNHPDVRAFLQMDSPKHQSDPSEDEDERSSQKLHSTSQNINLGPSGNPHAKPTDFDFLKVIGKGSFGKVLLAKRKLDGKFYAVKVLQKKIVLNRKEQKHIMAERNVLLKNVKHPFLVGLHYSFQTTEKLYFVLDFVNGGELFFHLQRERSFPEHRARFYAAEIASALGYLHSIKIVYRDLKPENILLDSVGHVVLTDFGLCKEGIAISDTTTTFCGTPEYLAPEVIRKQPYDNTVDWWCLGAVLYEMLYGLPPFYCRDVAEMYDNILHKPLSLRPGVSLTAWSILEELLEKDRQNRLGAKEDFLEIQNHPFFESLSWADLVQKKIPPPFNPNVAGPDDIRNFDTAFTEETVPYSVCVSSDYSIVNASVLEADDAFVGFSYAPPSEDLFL

S6K1, sequence (P23443 1-421 T412E limits assumed): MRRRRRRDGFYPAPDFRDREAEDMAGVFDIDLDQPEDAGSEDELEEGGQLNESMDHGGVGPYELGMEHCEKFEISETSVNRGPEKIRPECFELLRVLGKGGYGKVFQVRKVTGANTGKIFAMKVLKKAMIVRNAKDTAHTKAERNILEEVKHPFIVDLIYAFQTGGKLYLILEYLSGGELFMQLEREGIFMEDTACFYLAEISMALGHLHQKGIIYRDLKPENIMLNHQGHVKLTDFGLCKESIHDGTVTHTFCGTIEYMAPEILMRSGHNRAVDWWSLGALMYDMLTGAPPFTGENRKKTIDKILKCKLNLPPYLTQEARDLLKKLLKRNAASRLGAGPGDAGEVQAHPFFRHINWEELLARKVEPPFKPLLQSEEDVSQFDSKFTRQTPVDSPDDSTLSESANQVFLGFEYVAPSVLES

In the case of `Nc1n[nH]c2nc(-c3ccc(NS(=O)(=O)c4cc(Cl)ccc4Cl)cc3)ncc12` [14H, reference compound], the IC50 [1] is given as 76 nM, the IC50 [2] is given as 10 nM and the “growth in combination with GDC0941 or AZD5363” value [3] is given as “further suppressed cell growth”. For the same compound, the “growth in combination with GDC0941 or AZD5363” value [4] was “further suppressed cell growth”, the pNDRG1 phosphorylation ([5]; basal, no inhibition of Akt) was “minimal effect” and the NDRG1 phosphorylation ([5]; in the presence of 3 μM AZD5363) was “markedly suppressed”. For the same compound, the IC50 [6] was 4 nM.
